Data reported in patent US9034876B2, “Treatment of chronic inflammation with a 1,2,4-triazolo [1,5a] pyridine derivative” (Cephalon, Inc., priority 2010, dated 2015).

Experiments:
[1] = system: serum and paw cytokines; assay: CIA model, serum and paw cytokines (Luminex bead assay); format: in vivo, female DBA/1 mice
Protocol: Female DBA/1 mice were injected with purified collagen type II in CFA i.d. (intradermal), then boosted with collagen type II in IFA, s.c., (subcutaneous) on day 21 followed by a day 28 LPS injection i.p. to induce arthritis (CIA). Mice that scored a ‘1’ or better for each paw were considered arthritic and entered into the study. Treatments started after 7-10 days of arthritis induction. Compound A was provided orally, b.i.d., for all doses tested; Dex was administered i.p. at 1.5 mg/kg, three times a week; and vehicle (PEG400+1% DMSO) was provided orally, b.i.d.
FIGS. 4C-1 through 4C-4: Depict concentrations of various serum cytokines (IL-12, IL-2, IL-10 and TNFα) in arthritic paws in each treatment group.
Frozen plasma at −80° C. was thawed on ice, vortexed, then centrifuged for 10 minutes to remove debris and aggregates. A total of 25-50 μl of serum was used for Luminex® assays following the manufacturer's instruction. Ten different mouse cytokines were measured using the mouse cytokine 10-plex bead kit (Invitrogen, Carlsbad, Calif.). […]
A more detailed description of this method can be found described elsewhere (Lu et al, 2010, submitted for publication). […] Protein concentration was measured using a BCA protein assay (Pierce, Rockford, Ill.) and adjusted to 3 mg/ml. […]

[2] = system: pSTAT3; assay: Activity against pSTAT3 (another experiment)
[3] = target: human JAK2 (Homo sapiens, UniProt O60674); conditions: read-out: IC50, JAK2 kinase, isolated human enzyme; average±standard deviation of at least 4 determinations; 0.2 μM ATP
Sequence of human JAK2 (O60674 whole entry): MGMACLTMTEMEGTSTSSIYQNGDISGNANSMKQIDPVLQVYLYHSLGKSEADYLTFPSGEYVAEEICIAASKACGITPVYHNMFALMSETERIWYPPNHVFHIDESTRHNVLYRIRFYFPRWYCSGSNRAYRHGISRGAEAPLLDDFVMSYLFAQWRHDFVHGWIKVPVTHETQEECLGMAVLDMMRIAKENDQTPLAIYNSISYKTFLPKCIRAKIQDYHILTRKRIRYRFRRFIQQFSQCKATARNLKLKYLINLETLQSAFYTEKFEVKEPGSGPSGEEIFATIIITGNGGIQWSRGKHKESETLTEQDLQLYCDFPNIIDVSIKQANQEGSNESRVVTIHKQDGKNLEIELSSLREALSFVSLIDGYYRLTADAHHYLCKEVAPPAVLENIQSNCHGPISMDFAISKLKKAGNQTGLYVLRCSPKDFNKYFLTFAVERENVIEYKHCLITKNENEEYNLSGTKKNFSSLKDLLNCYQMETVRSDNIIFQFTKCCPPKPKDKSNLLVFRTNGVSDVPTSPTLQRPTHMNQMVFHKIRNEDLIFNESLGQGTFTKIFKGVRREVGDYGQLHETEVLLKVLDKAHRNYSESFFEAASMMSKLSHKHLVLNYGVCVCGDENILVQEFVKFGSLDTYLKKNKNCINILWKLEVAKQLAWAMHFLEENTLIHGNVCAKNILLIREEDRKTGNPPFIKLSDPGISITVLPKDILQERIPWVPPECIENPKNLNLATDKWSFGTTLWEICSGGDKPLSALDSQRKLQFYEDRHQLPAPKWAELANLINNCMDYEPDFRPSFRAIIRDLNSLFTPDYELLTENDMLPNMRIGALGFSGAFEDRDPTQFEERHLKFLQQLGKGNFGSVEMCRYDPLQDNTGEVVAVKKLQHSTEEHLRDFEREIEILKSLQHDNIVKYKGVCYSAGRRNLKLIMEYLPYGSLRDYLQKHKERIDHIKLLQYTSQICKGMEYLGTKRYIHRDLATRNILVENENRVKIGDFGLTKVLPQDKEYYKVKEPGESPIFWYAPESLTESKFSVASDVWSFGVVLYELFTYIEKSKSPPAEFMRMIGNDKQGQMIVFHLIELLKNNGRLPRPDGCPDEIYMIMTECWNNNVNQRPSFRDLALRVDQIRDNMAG
Protocol: IC50 values are reported as the average±standard deviation of at least 4 independent determinations.
(§1) The kinase activity of baculovirus-expressed human JAK kinases (JAK1, JAK2, JAK3 or TYK2) was measured using the time-resolved fluorescence (TRF) detection system as described elsewhere [17]. Each 96-well Costar high binding plate (Corning, Corning, N.Y.) was coated with 100 μl/well of 10 μg/ml neutravidin (Pierce Biotechnology, Rockford, Ill.) in TBS at 37° C. for 2 h, followed by 100 μl/well of 1 μg/ml 15-mer peptide substrate (biotinyl-amino-hexanoyl-[sequence]-amide, Infinity Biotech Research and Resource, Aston, Pa.) at 37° C. for 1 h. The kinase assay mixture (total volume=100 μl/well) consisting of 20 mM HEPES (pH 7.2), ATP (Km level for each kinase), 1 mM MnCl2, 0.1% BSA, and test Compound (diluted in DMSO; 2.5% DMSO final in assay) was added to the assay plate. The concentrations of ATP used were as follows: 0.2 μM ATP for JAK1, JAK2 and TYK2; 0.1 μM ATP for JAK3. Enzyme was added and the reaction was allowed to proceed for 20 min at RT. […] Plates were agitated for 10 min and the fluorescence of the resulting solution measured using the PerkinElmer EnVision® 2102 or 2104 multi-label plate reader. IC50 values were determined using the 4-parameter logistic model in XLFit® 4 (IDBS, Ltd., Guildford, UK).

[4] = system: JAK2 in HEL92 cells (phosphorylation of STAT5); assay: Inhibition of STAT5 phosphorylation in HEL92 cells (western blot); format: cell-based; conditions: 1 hour, serum-free media
[5] = target: T1, human JAK1 (Homo sapiens, UniProt P23458); assay: JAK1 kinase enzyme assay, TRF detection; format: biochemical; conditions: relative to JAK2
T1 construct: host or cells: baculovirus expression
T1 sequence (P23458 whole entry): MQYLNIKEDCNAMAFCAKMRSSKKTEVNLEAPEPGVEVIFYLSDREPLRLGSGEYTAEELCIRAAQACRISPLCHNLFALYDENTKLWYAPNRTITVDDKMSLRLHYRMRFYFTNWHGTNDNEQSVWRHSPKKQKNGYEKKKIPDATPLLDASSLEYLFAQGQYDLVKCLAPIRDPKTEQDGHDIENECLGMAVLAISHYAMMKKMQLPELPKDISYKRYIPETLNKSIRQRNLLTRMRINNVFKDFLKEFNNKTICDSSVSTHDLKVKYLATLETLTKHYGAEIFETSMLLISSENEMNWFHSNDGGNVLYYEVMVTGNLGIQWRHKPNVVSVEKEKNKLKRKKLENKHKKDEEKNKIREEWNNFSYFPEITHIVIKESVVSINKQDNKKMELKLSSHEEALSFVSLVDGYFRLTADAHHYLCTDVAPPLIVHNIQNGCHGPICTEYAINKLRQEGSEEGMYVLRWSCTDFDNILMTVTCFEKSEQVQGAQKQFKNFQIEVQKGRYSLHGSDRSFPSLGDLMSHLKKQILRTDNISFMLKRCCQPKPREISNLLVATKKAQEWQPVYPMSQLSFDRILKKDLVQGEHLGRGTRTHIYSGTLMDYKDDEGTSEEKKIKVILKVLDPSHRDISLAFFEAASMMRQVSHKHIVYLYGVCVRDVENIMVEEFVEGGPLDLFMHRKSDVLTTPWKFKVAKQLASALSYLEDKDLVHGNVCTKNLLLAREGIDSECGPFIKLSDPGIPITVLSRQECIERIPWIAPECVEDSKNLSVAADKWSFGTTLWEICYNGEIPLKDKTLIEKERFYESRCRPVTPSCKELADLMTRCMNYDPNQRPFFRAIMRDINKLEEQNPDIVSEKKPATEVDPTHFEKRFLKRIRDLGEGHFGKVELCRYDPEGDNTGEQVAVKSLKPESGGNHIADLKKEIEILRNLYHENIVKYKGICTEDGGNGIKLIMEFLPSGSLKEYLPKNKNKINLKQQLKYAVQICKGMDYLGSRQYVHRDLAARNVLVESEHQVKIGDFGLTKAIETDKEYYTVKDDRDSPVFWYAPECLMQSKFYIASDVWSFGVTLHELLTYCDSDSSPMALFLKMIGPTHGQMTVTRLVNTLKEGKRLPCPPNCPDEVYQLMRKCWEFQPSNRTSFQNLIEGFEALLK
Protocol: as §1

[6] = system: collagen-antibody-induced arthritis (CAIA); assay: CAIA model, joint histopathology scores; format: in vivo, female DBA/1 mice; conditions: compared to vehicle controls
Protocol: Tissues were also stained with Safranin-O to evaluate matrix degeneration. Five representative mice from each group were sent for histological analysis and graded according to a scoring method described herein. The data in the figures represent mean±SEM, all statistics were performed using Prism® software and 2-way ANOVA analysis. H&E and Safranin-O stained paraffin wax embedded carpus and tarsus sections were scored by a board certified, independent pathologist for the criteria described in the materials and methods. Tabulated data represent mean±SD (standard deviation) values for the tarsus only. Statistics were performed using 2-way ANOVA analysis, *p<0.05; **p<0.01; ***p<0.001, N=5 mice per group tested. At the end of each experiment, front and hind paws (including carpus and tarsus) were removed from the body of the animal for histological analysis. Skin from the ends of the digits was removed and the metatarsal region skin perforated using surgical scissors to allow full decalcification. […] After 7-10 days of decalcification, samples were washed for 2 hours in distilled water and stored in 70% ethanol at 4° C. until ready to be processed. […] A total of five mice from each group were analyzed via histopathology, 10× representative images are shown for each group tested.

[7] = system: collagen-induced arthritis (CIA); assay: CIA model, joint histopathology; format: in vivo, female DBA/1 mice
Protocol: Tissues were also stained with Safranin-O to detect matrix degeneration and this information was used for scoring. The data in the figure represents mean±SEM, statistics were performed using Prism® software and 2-way ANOVA analysis, *p<0.05, **p<0.01, ***p<0.001. H&E and safranin-O stained paraffin wax embedded carpus and tarsus sections were scored by a board certified, independent pathologist for the criteria described in the materials and methods. Tabulated data represent mean±SD values for the tarsus only. Statistics were performed using 2-way ANOVA analysis, *p<0.05; **p<0.01; ***p<0.001, N=5 mice per group tested. At the end of each experiment, front and hind paws (including carpus and tarsus) were removed from the body of the animal for histological analysis. Skin from the ends of the digits was removed and the metatarsal region skin perforated using surgical scissors to allow full decalcification. Samples followed a decalcification procedure using formic acid as described elsewhere [21, 22]. After 7-10 days of decalcification, samples were washed for 2 hours in distilled water and stored in 70% ethanol at 4° C. until ready to be processed. Samples were paraffin embedded, sectioned and stained with Hematoxylin and Eosin (H&E) stain, also Safranin-O for matrix degradation (images not shown, used by pathologist for scoring). All histology work was performed at the Wistar Institute (Philadelphia, Pa.). […] A total of five mice from each group were analyzed via histopathology, 10× representative images are shown for each group tested.

[8] = target: human TYK2 (Homo sapiens, UniProt P29597); assay: TYK2 kinase enzyme assay, TRF detection; format: biochemical; conditions: relative to JAK2
Sequence of human TYK2 (P29597 whole entry): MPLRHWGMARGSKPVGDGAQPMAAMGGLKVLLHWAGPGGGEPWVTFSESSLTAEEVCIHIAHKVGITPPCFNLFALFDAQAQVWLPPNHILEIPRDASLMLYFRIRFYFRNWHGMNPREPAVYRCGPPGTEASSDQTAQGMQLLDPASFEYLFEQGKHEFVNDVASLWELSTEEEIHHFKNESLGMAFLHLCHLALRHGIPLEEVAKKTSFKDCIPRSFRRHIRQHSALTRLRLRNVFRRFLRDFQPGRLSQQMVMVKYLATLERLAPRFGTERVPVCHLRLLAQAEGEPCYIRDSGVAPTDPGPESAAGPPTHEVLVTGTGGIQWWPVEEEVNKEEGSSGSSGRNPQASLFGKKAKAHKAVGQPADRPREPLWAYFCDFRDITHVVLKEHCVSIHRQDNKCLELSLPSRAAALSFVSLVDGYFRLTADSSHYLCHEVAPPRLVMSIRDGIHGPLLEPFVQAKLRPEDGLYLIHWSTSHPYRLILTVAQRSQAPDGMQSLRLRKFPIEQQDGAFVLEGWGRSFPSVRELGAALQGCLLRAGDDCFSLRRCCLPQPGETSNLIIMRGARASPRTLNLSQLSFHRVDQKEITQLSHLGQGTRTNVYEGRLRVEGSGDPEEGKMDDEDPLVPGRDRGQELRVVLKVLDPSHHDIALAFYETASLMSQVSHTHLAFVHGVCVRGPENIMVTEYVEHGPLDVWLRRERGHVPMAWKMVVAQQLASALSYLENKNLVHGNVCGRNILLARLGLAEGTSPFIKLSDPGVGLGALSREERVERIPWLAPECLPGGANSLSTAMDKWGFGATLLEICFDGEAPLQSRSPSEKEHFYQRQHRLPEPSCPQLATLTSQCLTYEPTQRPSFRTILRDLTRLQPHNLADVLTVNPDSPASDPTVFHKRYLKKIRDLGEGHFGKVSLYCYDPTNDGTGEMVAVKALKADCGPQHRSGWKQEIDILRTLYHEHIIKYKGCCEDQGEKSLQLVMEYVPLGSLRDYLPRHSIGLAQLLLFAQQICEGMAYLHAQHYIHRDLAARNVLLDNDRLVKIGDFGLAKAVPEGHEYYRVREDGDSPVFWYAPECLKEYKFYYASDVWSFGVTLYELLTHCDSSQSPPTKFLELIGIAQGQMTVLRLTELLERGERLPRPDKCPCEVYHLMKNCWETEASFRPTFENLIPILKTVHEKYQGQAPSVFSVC
Protocol: as §1

[9] = system: JAK2 in irf-bla TF-1 cells; assay: GeneBLAzer reporter assay in irf-bla TF-1 cells; format: cell-based
Protocol: The effect of Compound A in a cellular system was measured using irf-bla TF-1 cells (JAK2) and Ba/F3 (JAK3) cells. These cells were not tested for the presence of JAK1 and TYK2. IC50 values are reported as the average±standard deviation of at least 4 independent determinations.

[10] = target: Src kinase (Homo sapiens, UniProt P12931); assay: Kinase profiling panel, Src; format: binding; conditions: 1 μM
Sequence of Src kinase (P12931 whole entry): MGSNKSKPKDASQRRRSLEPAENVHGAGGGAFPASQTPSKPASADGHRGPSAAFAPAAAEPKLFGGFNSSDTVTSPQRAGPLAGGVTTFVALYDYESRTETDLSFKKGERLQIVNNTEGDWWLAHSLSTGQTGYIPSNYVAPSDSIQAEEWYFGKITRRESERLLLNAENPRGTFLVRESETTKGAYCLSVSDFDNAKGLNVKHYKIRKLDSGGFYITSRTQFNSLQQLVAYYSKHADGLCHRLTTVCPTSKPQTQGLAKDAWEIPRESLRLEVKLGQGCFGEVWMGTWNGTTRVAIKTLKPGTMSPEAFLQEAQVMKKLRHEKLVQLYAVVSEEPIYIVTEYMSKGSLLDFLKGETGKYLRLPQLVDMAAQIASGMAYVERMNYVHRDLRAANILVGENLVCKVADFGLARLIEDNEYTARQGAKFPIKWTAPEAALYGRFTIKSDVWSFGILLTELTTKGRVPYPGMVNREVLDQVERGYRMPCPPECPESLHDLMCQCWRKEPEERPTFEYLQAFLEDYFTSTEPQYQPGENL
Protocol: The ability of Compound A to inhibit other members of the kinome was also assessed using binding assays for a panel of 402 kinases [25].

[11] = system: carrageenan-induced inflammation; assay: Air pouch mouse model of carrageenan-induced inflammation; format: in vivo, Balb/c mice; conditions: 10, 30 and 55 mg/kg into the pouch, 24 hours, p<0.05 vs vehicle
Protocol: Balb/c mice were induced for air pouch initiation (see materials and methods) using sterile air. Carrageenan at 1% in saline was injected directly into the pouch followed by treatment with Compound A or dexamethasone (Dex) 1 hour later. One-hundred microliters of air pouch fluid was removed 24 hours post-administration. FIG. 5A: Depicts total cell count using 7-AAD exclusion via flow cytometeric analysis and BD TruCount beads. FIG. 5B: Depicts fluid supernatant IL-6 concentration as determined by Luminex® cytokine analysis. FIG. 5C: Depicts hemoglobin content as assessed by the Drabkin's assay. All data shown in the figures represent mean±SEM, and statistics were performed using 2-way ANOVA analysis, *p<0.05, N=5 mice per group tested. To test the impact of Compound A inhibition of JAK2 at the cellular level, the mouse air pouch model (APM) was utilized. Air-filled subcutaneous pouches were maintained under sterile conditions and injected with 1% carrageenan simultaneously with Compound A at 10, 30 and 55 mg/kg. Saline alone (vehicle) or dexamethasone at 1.5 mg/kg were used as controls. […] Briefly, Balb/c mice were injected s.c. with 4 ml of sterile air on day −5, baseline measurements were recorded and mice were randomized into groups. Mice entered the study upon air pouch maintenance by day −3 when 2 ml of sterile air is injected for air pouch maintenance. On day 0 mice were given a 1% carrageenan (Sigma, St. Louis, Mo.) injection suspended in saline directly into the air pouch. This induces a rapid inflammatory influx of primarily neutrophils and macrophage. The test compounds were provided in saline at mg/kg concentrations in 100 μl total volume and introduced directly into the air pouch simultaneously with the carrageenan injection, (1% carrageenan in saline). […] Cellular exudates were centrifuged, supernatants were processed for Luminex cytokine analysis, and the cell pellets were counted for total live and dead cells. […] Hemoglobin content was determined using the Drabkin's assay (Sigma, St. Louis, Mo.).

[12] = system: pro-inflammatory cytokines in paw extracts; assay: CAIA model, paw cytokines (Luminex bead assay); format: in vivo, female DBA/1 mice
Protocol: DBA/1 female mice were injected i.v. with purified anti-collagen type II antibodies, then given 25 μg of LPS i.p. three days later to induce arthritis by day 5. Mice that met the arthritis criteria score of 1 per paw were entered into the study.
The cytokines were measured using known procedures [32].
(§2) Briefly, the front (including carpus) and back (including tarsus) right paws were collected and frozen in dry-ice cooled isopentane and stored at −80° C. until use. The paws were cut to 2 mm×2 mm segments and kept on dry-ice in round bottom polypropylene tubes. Seven hundred microliters tissue extraction buffer containing protease inhibitor cocktail (Calbiochem, San Diego, Calif.) and Halt phosphatase inhibitor cocktail (Thermo Scientific, Rockford, Ill.) or Roche phosphatase inhibitor cocktail (Roche, Indianapolis, Ind.) in tissue extraction reagent I (Invitrogen, Carlesbad, Calif.) were added to each sample. Samples were homogenized frozen using a PT 10-35 Polytron homogenizer. After homogenization, samples were centrifuged at 4° C. for 2000×g for 10 minutes and supernatants re-centrifuged at 4° C. at maximum speed, 14,000×g, for 15 minutes. Supernatants were carefully removed to avoid picking up the top layer of lipids/adipose debris. Protein concentration was measured using a BCA protein assay (Pierce, Rockford, Ill.) and adjusted to 3 mg/ml. A minimum of 25 μl of this extraction was used in the above described protocol using the mouse cytokine 10-plex bead kit (Invitrogen, Carlsbad, Calif.) or phosphorylated STAT1, 3, 5a/b, 3-plex kit (Invitrogen, Carlsbad, Calif.).

[13] = system: phospho-STAT3; assay: CAIA model, paw phospho-STAT3 (Luminex bead assay); format: in vivo, female DBA/1 mice; conditions: for reduction in paw pSTAT3 compared with Dex: within 24 hours of treatment (day 6-7); for phospho-STAT3 levels in the paw: 55 mg/kg
Protocol: DBA/1 female mice were injected i.v. with purified anti-collagen type II antibodies, then given 25 μg of LPS i.p. three days later to induce arthritis by day 5. Mice that met the arthritis criteria score of 1 per paw were entered into the study. Compound A was provided orally, b.i.d., for all doses tested; Dex was provided at 1.5 mg/kg three times a week, i.p.; and vehicle (PEG400+1% DMSO) was provided orally.
The graphed data was generated using Luminex® bead kits, concentration in units per ml per 3 mg of total protein as determined by the BSA assay. The graphed data represents mean±SEM, statistics were performed using 2-way ANOVA analysis.
To investigate the effect of Compound A on levels of phosphorylated STATs and cytokines in the paws of treated mice, a method was developed whereby synovial fluid and cellular joint extracts could be obtained from the paws and ankles of diseased animals for analysis using multiplex bead arrays [32]. […] Consequently, multiplex analysis was used as the primary method of measuring phosphorylated STATs for all experiments described herein.
as §2

[14] = system: JAK2 (STAT5/pSTAT5 in HEL92 tumor extracts); assay: In vivo pharmacodynamic assay, HEL92 tumor extracts; design: species or system mice; conditions: 55 mg/kg p.o., 2 hours
Description: Levels of STAT5 and pSTAT5 were quantitated via western blot. Each lane represents an individual sample.

Compound: CN1CCN(c2cccc(Nc3nc4c(-c5ccc(S(C)(=O)=O)cc5)cccn4n3)c2)CC1 [Compound A, [8-(4-Methanesulfonyl-phenyl)-[1,2,4]triazolo[1,5-a]pyridin-2-yl]-[3-(4-methyl-piperazin-1-yl)-phenyl]-amine]
- serum and paw cytokines (IL-12, IL-2, IL-10, TNFα, IL-4) and spleen IL-12 ([1]; all three doses): decrease in several serum and paw cytokines
- serum IL-12 level ([1]; all three doses (30, 55, 100 mg/kg)): significantly decrease the level of IL-12 comparable to that observed with Dex
- activity against pSTAT3 [2]: exhibited some activity against pSTAT3
- IC50 [3]: 1.8 ± 0.6 nM
- inhibition of JAK2, phosphorylation of STAT5 [4]: shown to inhibit JAK2 in HEL92 cells
- selectivity versus JAK1 [5]: > 40 fold
- histopathology parameters (matrix erosions, subchondral osteolysis, osteoproliferation, synovial proliferation, pannus formation, degree of inflammation) [6]: significantly decrease several parameters
- histological protection of the tarsus ([7]; 55 mg/kg): provided protection in the tarsus
- histopathology scores, significance versus vehicle ([7]; 55 mg/kg, p<0.05): Significance was only observed for the degree of inflammation
- histological protection of carpus and tarsus ([7]; 100 mg/kg): provided the best protection for both regions
- histological protection of the tarsus ([7]; 100 mg/kg): provided protection in the tarsus
- histopathology scores, significance versus vehicle ([7]; 100 mg/kg, p<0.01): Significance was only observed for the degree of inflammation
- selectivity against TYK2 [8]: > 800 fold
- inhibition of JAK2, reporter assay [9]: inhibits JAK2 in irf-bla TF-1 cells
- activity against Src in profiling panel [10]: lacked activity
- air pouch fluid IL-6 expression [11]: inhibit the expression of IL-6 to below that of Dex
- angiogenesis, total hemoglobin content (Drabkin's assay) [11]: angiogenesis was impacted
- cellular accumulation in the air pouch (total cell count) [11]: significantly decreased cellular accumulation in the air pouch
- paw IL-6 concentration ([12]; CAIA experiment, 4 hours post dosing, p<0.05): reduction in paw IL-6
- level of pro-inflammatory cytokines in paw extracts ([12]; CAIA, 55 mg/kg): significantly reduced the level of several of the cytokines
- cytokine suppression over the study (IL-1β, IL-6, TNFα, IL-12) ([12]; CAIA, 55 mg/kg, p<0.01 vs vehicle): lowered and sustained cytokine suppression for the remainder of the study
- level of pro-inflammatory cytokines in paw extracts ([12]; CAIA, 100 mg/kg): significantly reduced the level of several of the cytokines
- dose dependence of cytokine reduction in paw extracts ([12]; CAIA, 30, 55 and 100 mg/kg, especially GM-CSF, IL-12, IL-2, IL-4): Dose-dependent reductions were observed for all cytokines tested
- paw cytokine expression compared with Dex group ([12]; CAIA, several of the cytokines tested, p<0.05 vs vehicle): significantly decreased cytokine expression below the levels observed in the Dex treatment group
- reduction in paw pSTAT3 compared with Dex ([13]; 30 mg/kg b.i.d., p<0.01 vs vehicle): significantly greater than that of Dex
- reduction in paw pSTAT3 compared with Dex ([13]; 55 mg/kg b.i.d., p<0.001 vs vehicle): significantly greater than that of Dex
- phospho-STAT3 levels in the paw ([13]; 2 hours after administration): nearly abolished
- phospho-STAT3 levels in the paw ([13]; 6 hours post-administration): only slowly began to recover
- paw pSTAT3 expression, remainder of the experiment ([13]; b.i.d. treatment): reduced pSTAT3 expression to the lower limits of the assay
- inhibition of JAK2 in vivo (pSTAT5/STAT5) [14]: inhibit JAK2 in vivo
